# From patent US9468641B2, “Anti-inflammatory pharmaceutical composition comprising benzopyranyl tetracycles” (SEOUL NATIONAL UNIVERSITY R&DB FOUNDATION, priority 2014, dated 2016)
# Tested on: BV-2 cells
# Assay: Griess assay of LPS-induced nitrite release in BV-2 cells
# Format: cell-based
# Settings: BV-2 cells, Griess assay; expressed as percentages of the nitrite level produced upon DMSO treatment (100%)
# Method: Cells increase the secretion of nitrite when induced to be inflammatory, but decrease the secretion of nitrite in the presence of an anti-inflammatory agent. […] Cells were treated with the compounds in the absence or presence of 100 ng/mL LPS (lipopolysaccharide). After 24 hrs of incubation, the cell culture media were reacted with Griess reagent (0.1% naphthylethylenediamine dihydrochloride and 1% sulfanilamide in 2% phosphoric acid). Absorbance was measured at 550 nm using a microplate reader, and the level of nitrite was estimated by comparison with a sodium nitrite standard curve.
row,SMILES,NO inhibition (%)
1,CC1(C)Oc2cc(O)ccc2C2C1=CCn1c(=O)n(-c3ccccc3I)c(=O)n12 (centres unmarked) [Chemical Formula 11],55.2%
2,Cn1c(=O)n2n(c1=O)C1C(=CC2)C2(CCCC2)Oc2cc(O)ccc21 (centres unmarked) [Chemical Formula 15],41.4%
3,Cn1c(=O)n2n(c1=O)C1C(=CC2)C(C)(C)Oc2cc(O)ccc21 (centres unmarked) [Chemical Formula 4],75.0%
4,Cc1ccc(-n2c(=O)n3n(c2=O)C2C(=CC3)C3(CCCC3)Oc3cc(O)ccc32)cc1 (centres unmarked) [Chemical Formula 17],72.1%
5,CC1(C)Oc2cc(O)ccc2C2C1=CCn1c(=O)n(-c3ccc(F)cc3)c(=O)n12 (centres unmarked) [Chemical Formula 10],76.4%
6,CC1(C)Oc2cc(O)ccc2C2C1=CCn1c(=O)n(-c3ccc(C(C)(C)C)cc3)c(=O)n12 (centres unmarked) [Chemical Formula 7],92.1%
7,O=c1n(Cc2ccccc2)c(=O)n2n1CC=C1C2c2ccc(O)cc2OC12CCCC2 (centres unmarked) [Chemical Formula 16],53.2%
8,CC(C)(C)c1ccc(-n2c(=O)n3n(c2=O)C2C(=CC3)C3(CCCC3)Oc3cc(O)ccc32)cc1 (centres unmarked) [Chemical Formula 18],99.7%
9,COc1cccc(-n2c(=O)n3n(c2=O)C2C(=CC3)C(C)(C)Oc3cc(O)ccc32)c1 (centres unmarked) [Chemical Formula 9],90.8%
10,CC1(C)Oc2ccccc2C2C1=CCn1c(=O)n(-c3ccccc3)c(=O)n12 (centres unmarked) [Chemical Formula 35],1.2%
11,CC1(C)Oc2cc(O)ccc2C2C1=CCn1c(=O)n(-c3cccc([N+](=O)[O-])c3)c(=O)n12 (centres unmarked) [Chemical Formula 12],70.4%
12,O=c1n(-c2cccc([N+](=O)[O-])c2)c(=O)n2n1CC=C1C2c2ccc(O)cc2OC12CCCC2 (centres unmarked) [Chemical Formula 23],81.5%
13,CC1(C)Oc2cc(O)ccc2C2C1=CCn1c(=O)n(C3CCCCC3)c(=O)n12 (centres unmarked) [Chemical Formula 3],38.0%
14,O=c1n(-c2ccccc2)c(=O)n2n1CC=C1C2c2ccc(O)cc2OC12CCCC2 (centres unmarked) [Chemical Formula 13],70.4%
15,O=c1n(-c2ccccc2Cl)c(=O)n2n1CC=C1C2c2ccc(O)cc2OC12CCCC2 (centres unmarked) [Chemical Formula 27],44.8%
16,CC1(C)Oc2cc(O)ccc2C2C1=CCn1c(=O)n(-c3ccccc3Cl)c(=O)n12 (centres unmarked) [Chemical Formula 26],57.1%
17,COc1ccc(-n2c(=O)n3n(c2=O)C2C(=CC3)C3(CCCC3)Oc3cc(O)ccc32)cc1 (centres unmarked) [Chemical Formula 19],58.3%
18,CC1(C)Oc2cc(O)ccc2C2C1=CCn1c(=O)n(Cc3ccccc3)c(=O)n12 (centres unmarked) [Chemical Formula 5],63.0%
19,CC1(C)Oc2cc(O)ccc2C2C1=CCn1c(=O)n(-c3ccc(Br)cc3)c(=O)n12 (centres unmarked) [Chemical Formula 28],58.4%

row,SMILES,NO inhibition (%)
1,O=c1n(C2CCCCC2)c(=O)n2n1CC=C1C2c2ccc(O)cc2OC12CCCC2 (centres unmarked) [Chemical Formula 14],48.8%
2,COc1cccc(-n2c(=O)n3n(c2=O)C2C(=CC3)C3(CCCC3)Oc3cc(O)ccc32)c1 (centres unmarked) [Chemical Formula 20],63.0%
3,CC1(C)Oc2cc(O)ccc2C2C1=CCn1c(=O)n(-c3ccc(Cl)cc3)c(=O)n12 (centres unmarked) [Chemical Formula 24],22.3%
4,CCOC(=O)CCC1(C)Oc2cc(O)ccc2C2C1=CCn1c(=O)n(-c3ccccc3)c(=O)n12 (centres unmarked) [Chemical Formula 39],44.9%
5,Cn1c(=O)n2ccc3c(n2c1=O)-c1ccc(O)cc1OC3(C)C [Chemical Formula 31],12.1%
6,CC1(C)Oc2cc(O)ccc2C2C1=CCn1c(=O)n(-c3ccc(C(=O)c4ccccc4)cc3)c(=O)n12 (centres unmarked) [Chemical Formula 48],65.5%
7,Cc1ccc(-n2c(=O)n3n(c2=O)C2C(=CC3)C(C)(C)Oc3cc(O)ccc32)cc1 (centres unmarked) [Chemical Formula 6],41.8%
8,O=c1n(-c2ccc(F)cc2)c(=O)n2n1CC=C1C2c2ccc(O)cc2OC12CCCC2 (centres unmarked) [Chemical Formula 21],58.7%
9,COc1ccc(-n2c(=O)n3n(c2=O)C2C(=CC3)C(C)(C)Oc3cc(O)ccc32)cc1 (centres unmarked) [Chemical Formula 8],77.7%
10,O=c1n(-c2ccccc2)c(=O)n2n1CCC1C2c2ccc(O)cc2OC12CCCC2 (centres unmarked) [Chemical Formula 33],41.8%
11,COc1ccc2c(c1)OC(C)(C)C1=CCn3c(=O)n(-c4ccccc4)c(=O)n3C12 (centres unmarked) [Chemical Formula 36],3.2%
12,COC(=O)CCC1(C)Oc2cc(O)ccc2C2C1=CCn1c(=O)n(-c3ccc(C)cc3)c(=O)n12 (centres unmarked) [Chemical Formula 49],63.2%
13,CCNC(=O)CCC1(C)Oc2cc(O)ccc2C2C1=CCn1c(=O)n(-c3ccc(C)cc3)c(=O)n12 (centres unmarked) [Chemical Formula 51],6.2%
14,O=c1n(-c2ccc(Br)cc2)c(=O)n2n1CC=C1C2c2ccc(O)cc2OC12CCCC2 (centres unmarked) [Chemical Formula 29],44.0%
15,CC1(C)Oc2cc(O)ccc2C2C1=CCn1c(=O)n(-c3ccc(C(F)(F)F)cc3)c(=O)n12 (centres unmarked) [Chemical Formula 47],36.0%
16,O=c1n(-c2ccccc2I)c(=O)n2n1CC=C1C2c2ccc(O)cc2OC12CCCC2 (centres unmarked) [Chemical Formula 22],67.1%
17,COc1cccc(-n2c(=O)n3n(c2=O)C2c4ccc(O)cc4OC(C)(C)C2C=C3)c1 (centres unmarked) [Chemical Formula 34],4.9%
18,CC1(C)Oc2cc(O)ccc2C2C1C=Cn1c(=O)n(-c3ccccc3)c(=O)n12 (centres unmarked) [Chemical Formula 32],24.9%
19,O=c1n(-c2ccc(Cl)cc2)c(=O)n2n1CC=C1C2c2ccc(O)cc2OC12CCCC2 (centres unmarked) [Chemical Formula 25],44.0%
